Source: PubChem BioAssay (NCI)
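Exposure lasted 48 hours, with cells grown in 96-well plates and compounds tested at five concentrations. GI50 = concentration required for 50% inhibition of growth. TGI: concentration producing complete growth inhibition.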

Legend:
Experiment in all cases: NCI-60 cell line screen, 48 h
[1] = system: HL-60(TB) leukemia
[2] = system: LOX IMVI melanoma
[3] = system: NCI-H226 lung
[4] = system: OVCAR-3 ovarian
[5] = system: RPMI-8226 leukemia
[6] = system: SF-295 CNS
[7] = system: SK-MEL-5 melanoma
[8] = system: SK-OV-3 ovarian
[9] = system: TK-10 renal
[10] = system: OVCAR-5 ovarian

Structure (SMILES)	TGI [1]	TGI [2]	TGI [3]	TGI [4]	TGI [5]	TGI [6]	TGI [7]	TGI [8]	TGI [9]	TGI [10]	GI50 [1]	GI50 [2]	GI50 [3]	GI50 [4]	GI50 [10]	GI50 [5]	GI50 [6]	GI50 [7]	GI50 [8]	GI50 [9]
c1ccc2c(c1)nc1n2CSC1	> 100 µM	> 100 µM	> 100 µM	> 100 µM	> 100 µM	> 100 µM	> 100 µM	> 100 µM	> 100 µM	–	–	–	–	–	–	–	–	–	–	–
CC1=C[C@]2(CC(C)C3C(CC4(C)C5CCC6C(C)(C)C(=O)CC[C@@]67C[C@@]57CC[C@]34C)O2)OC1=O (some centres not stated)	> 100 µM	46.6 µM	22 µM	–	> 100 µM	89.5 µM	20.2 µM	–	79 µM	> 100 µM	–	–	–	–	–	–	–	–	–	–
Cc1nc2ccccc2c(=O)n1CC(=O)O	> 100 µM	> 100 µM	> 100 µM	> 100 µM	> 100 µM	> 100 µM	> 100 µM	> 100 µM	–	> 100 µM	–	–	–	–	–	–	–	–	–	–
CCN(CC)CCCC(Nc1c2ccc(Cl)cc2nc2ccc(OC)cc12)c1ccc(F)cc1 (configuration not stated)	4.02 µM	3.26 µM	47.5 µM	4.44 µM	5.36 µM	3.16 µM	3.15 µM	15.9 µM	3.58 µM	5.6 µM	1.91 µM	1.77 µM	20.9 µM	2.16 µM	2.04 µM	2.18 µM	1.6 µM	1.7 µM	4.33 µM	1.81 µM
Cc1cccc2c(N)c3cccc(C(=O)NCCN(C)C)c3nc12	0.0427 µM	0.158 µM	1.48 µM	0.929 µM	0.128 µM	0.615 µM	0.269 µM	14.5 µM	> 30 µM	0.723 µM	–	–	–	–	–	–	–	–	–	–
CCCCN(CCCC)CCCCNc1c(C)cnc2cc(Cl)ccc12	–	29.7 µM	43.4 µM	> 100 µM	–	50.8 µM	–	–	96 µM	39.1 µM	–	–	–	–	–	–	–	–	–	–
Nc1ncnc2c1ncn2C1CCC(CO)O1 (configuration not stated)	> 100 µM	> 100 µM	> 74.7 µM	> 100 µM	> 100 µM	> 79.4 µM	> 100 µM	> 100 µM	–	> 100 µM	–	–	–	–	–	–	–	–	–	–
[C-]#[O+].[Cl][Sn]([Cl])[Cl].[Cl][Sn]([Cl])[Cl].[Pt].c1ccncc1	> 74 µM	> 31.6 µM	> 100 µM	> 100 µM	> 100 µM	> 100 µM	> 100 µM	> 100 µM	–	> 100 µM	–	–	–	–	–	–	–	–	–	–
CO/N=C1/c2sccc2[C@H](NC(=O)C(F)(F)F)[C@@H]1O	> 100 µM	> 100 µM	> 100 µM	> 100 µM	–	> 100 µM	> 100 µM	> 100 µM	> 100 µM	> 100 µM	–	–	–	–	–	–	–	–	–	–
CCOc1ccc(/C=C/[N+](=O)[O-])cc1	49 µM	–	11.7 µM	15.8 µM	6.17 µM	41.8 µM	18.5 µM	–	24.7 µM	19.8 µM	8.83 µM	–	3.06 µM	4.53 µM	6.31 µM	2.14 µM	19.2 µM	5.78 µM	–	12 µM
CC(/C=C/c1ccc([N+](=O)[O-])o1)=N/N1CC(CN2CCOCC2)OC1=O (configuration not stated)	55.7 µM	> 100 µM	52.1 µM	42.8 µM	41.9 µM	> 100 µM	28.6 µM	> 100 µM	> 100 µM	> 100 µM	–	–	–	–	–	–	–	–	–	–
CCOP(=O)(OCC)C(Cc1ccc(OC)c(OC)c1)N=C(c1ccccc1)c1ccccc1 (configuration not stated)	51.9 µM	–	> 100 µM	> 100 µM	44.3 µM	> 100 µM	55.9 µM	–	> 100 µM	> 100 µM	–	–	–	–	–	–	–	–	–	–
CC(C)=CCc1c(C)cc2cc3c(c(O)c2c1O)C(O)=CC(=O)C3(CC=C(C)C)C/C=C(\C)CO (configuration not stated)	51.3 µM	77.4 µM	77 µM	76.3 µM	67.6 µM	87.9 µM	50.9 µM	71.4 µM	–	84.6 µM	–	–	–	–	–	–	–	–	–	–
COc1cc2c3c(n(CCN(C)C)c(=O)c2cc1OC)-c1cc2c(cc1C3=O)OCO2	> 35.8 µM	> 21.5 µM	57.9 µM	38.4 µM	19.2 µM	> 41.7 µM	22.1 µM	> 100 µM	> 100 µM	> 100 µM	1.02 µM	–	1.08 µM	8.31 µM	> 100 µM	0.0315 µM	0.511 µM	1.21 µM	> 29 µM	46.2 µM
COc1ccc(/C=N/NC(=O)NCCCN(C)C)cc1	> 100 µM	> 100 µM	> 100 µM	> 100 µM	–	> 100 µM	> 100 µM	> 100 µM	> 100 µM	–	–	–	–	–	–	–	–	–	–	–
CN1CCN(Cc2ccc(NC(=O)c3ccc(C#N)c(C#Cc4cnc(N)c5ncccc45)c3)cc2C(F)(F)F)CC1	> 100 µM	–	–	10.4 µM	8.59 µM	78.3 µM	83.1 µM	44.6 µM	–	3.34 µM	14.5 µM	–	–	3.34 µM	1.71 µM	2.74 µM	22.1 µM	6.67 µM	19.3 µM	–
CC(C)=CC(=O)OC1C2C(C)C(=O)OC2C(O)C(C)C2C=CC(=O)C21C (configuration not stated)	3.4 µM	3.44 µM	11.6 µM	6.92 µM	11.7 µM	13.4 µM	9.14 µM	15.3 µM	–	12.9 µM	–	–	–	–	–	–	–	–	–	–
C[C@]12C=CC(=O)C=C1CC[C@@H]1[C@@H]2C(=O)C[C@@]2(C)[C@H]1CC[C@]2(O)C(=O)CO	> 100 µM	> 100 µM	> 100 µM	> 100 µM	> 100 µM	> 100 µM	> 100 µM	> 100 µM	> 100 µM	> 100 µM	–	–	–	–	–	–	–	–	–	–
Cc1ccc(S(=O)(=O)Oc2cc(S(=O)(=O)O)cc3cc(S(=O)(=O)O)cc(N)c23)cc1	> 100 µM	> 100 µM	> 100 µM	> 100 µM	> 100 µM	> 100 µM	> 100 µM	> 100 µM	> 100 µM	> 100 µM	–	–	–	–	–	–	–	–	–	–
